Patent US7109160B1, “Peptides containing the motif IGD and their use as cell migration modulators” (University of Dundee, priority 1997, dated 2006)
“Also recorded” adds a separate entry of the source.

Key:
[1] = tested on: human skin fibroblasts (SK319 and FSF44); experiment: Inhibitors of early and late aspects of IGDS activity (pre-incubation protocols, collagen gel assay); format: cell-based; parameters: key to Inhibitory activity: early events / Inhibitory activity: late events: yes(+); no(−); conditions: for inhibition at 10 µg/mL: Homo sapiens, Skin fibroblast; for effect on IGDS-induced cell migration (late events), in words / effect on initial IGDS signalling (early events), in words: Table 3
Method: (§1) Migration Assays. In the collagen gel assay, pre-formed 2 ml gels were overlaid with 1 ml of serum-free MEM (controls) or serum-free MEM containing the requisite concentration of effector molecule to give the desired final concentration. Trypsinised fibroblasts were suspended in serum-free MEM to give an inoculum containing 2×10^5 cells/ml and 1 ml of this was plated onto replicate control and test gels.
The specific effects of potential inhibitory molecules on such early and late events were examined by using the following experimental protocol: (a) pre-incubating cells with IGDS (SEQ ID NO 2) and inhibitor and then assaying these treated cells in the absence of both IGDS (SEQ ID NO 2) and inhibitor (note: this protocol provides data concerning the effects of inhibitor on the early events mediating IGDS (SEQ ID NO 2) activity), (b) pre-incubating cells with neither IGDS (SEQ ID NO 2) nor inhibitor and assaying them in the presence of both (the effects of inhibitor on both early and late events), (c) pre-incubating cells with IGDS (SEQ ID NO 2) alone and then assaying them in the presence of inhibitor only (the effects of inhibitor on late events), and finally, (d) pre-incubating cells with inhibitor alone and then assaying them in the presence of IGDS (SEQ ID NO 2) to provide control information regarding possibly persistent effects of inhibitor which would confound data interpretation. Data presented in Table IA are concerned with the effects of the synthetic RGDS (SEQ ID NO 6) and RGES (SEQ ID NO 5).

[2] = tested on: human skin fibroblasts (SK319 and FSF44); experiment: Native collagen gel migration assay; format: cell-based; conditions: for effect on cell migration into native type I collagen gels: human dermal fibroblasts, 4-day incubation, FIG. 1
Method: Assays were performed as described in Materials and Methods in Example 1. Results are normalised by expressing them as “relative stimulation” of migration, this being calculated by dividing the percentage of cells in the gel matrix for each experimental point by the control value obtained in that particular experiment. Data are presented as the mean ±SD of five experiments. For clarity, the shaded area indicates the spread of standard deviations for data points not plotted with error bars. Upper panel: results obtained with the indicated synthetic peptides. Lower panel: results obtained with native fibronectin (FN), and its cell-binding (Cell-BD) and gelatin-binding (Gel-BD) domains.
(§2) Cells. Experiments were performed with two lines of human skin fibroblasts (SK319 and FSF44, between passage 10–18) shown to be free of mycoplasmal contamination by staining with Hoechst 33256. Identical results were obtained with both lines and these cells are consequently not individually identified in the Figures. Stock cultures were maintained in Eagle's Minimal Essential (MEM), as previously described^7.
as §1

[3] = tested on: chick yolk sac membrane; experiment: Chick yolk sac membrane angiogenesis assay; format: in vivo; conditions: for Positive responses (%) / Positive responses (positive/total): assessed after 24 hr; for angiogenic response in the chick yolk sac membrane, in words: in vivo
Excerpt: Dried methylcellulose pellets containing the test samples and control pellets (lacking the test samples) were placed on the yolk sac membrane of 6-day chick embryos, as described in Materials and Methods in Example 1. The elicited reaction was checked after six hours and assessed after 24 hr by observation of living embryos with a stereomicroscope. […] After assessment at 24 hr, selected membranes were fixed in 2.5% EM grade glutaraldehyde in 0.2 M phosphate buffer, pH 7.4. These preparations were then stained with 1% toluidine blue and photographed using a Leica DM LB microscope. […] Bar=250 μm.
Chick yolk sac membrane angiogenesis assay. The assay was performed essentially as described by Gush et al (1990) J. Med. Engineer. Tech. 14, 205–209. Accordingly, four-day-old fertilised eggs were cracked in a tumbler, covered with a Petri dish and incubated at 37° C. Two days later dried methylcellulose pellets containing the test samples and control pellets (lacking the test samples) were placed on the yolk sac membrane. The elicited angiogenic reaction was assessed after 24 hr by observation of living embryos with a stereomicroscope. Selected membranes were fixed in 2.5% EM grade glutaraldehyde in 0.2 M phosphate buffer (pH 7.4), dissected, stained with 1% toluidine blue and mounted on glass slides for photomicroscopy.

[4] = tested on: human skin fibroblasts (SK319 and FSF44); experiment: Collagen gel assay with combinations of peptides (co-incubation); format: cell-based
Method: The collagen gel assay was performed in the presence of various combinations of the indicated peptides and the percentage of cells present within the gel matrix measured after a four-day incubation period. Data are expressed as mean ±SD obtained in three experiments. Panel A: combinations of the gelatin-binding domain (Gel-BD) and IGDS (SEQ ID NO 2); Panel B: combinations of IGDS (SEQ ID NO 2) and RGDS (SEQ ID NO 6); Panel C: combinations of IGDS (SEQ ID NO 2) and the cell-binding domain (Cell-BD).
as §1
The possible mechanistic relationship between IGDS (SEQ ID NO 2) and the gelatin-binding domain in which it is contained was further examined by co-incubating cells with suboptimal concentrations of each.
Possible mechanistic interactions between IGDS (SEQ ID NO 2) and RGDS (SEQ ID NO 6) were studied in similar co-incubation experiments.

[5] = tested on: human skin fibroblasts (SK319 and FSF44); experiment: Transmembrane migration assay (membranes coated with native type I collagen or gelatin); format: cell-based; conditions: FIG. 2; for effect on cell migration through gelatin-coated membranes: gelatin (heat-denatured type I collagen)-coated membranes; for effect on cell migration through membranes coated with native collagen: native type I collagen-coated membranes
Method: Assays were performed as described in Materials and Methods in Example 1. Results from five experiments are presented as mean ±SD. Shaded area indicates the spread of standard deviations for data points not plotted with error bars. Panel A: results obtained with IGDS (SEQ ID NO 2) and the gelatin-binding domain (Gel-BD) on membranes coated with native collagen and gelatin. Panel B: results obtained with RGDS (SEQ ID NO 6), native fibronectin (FN), and its cell-binding domain (Cell-BD).
as §2
Polycarbonate membranes used in the transmembrane assay were immersed in an aqueous solution containing 10 μg/ml of either native type I collagen or heat-denatured type I collagen (gelatin) overnight at 37° C. and then air-dried. Assays were performed as previously described^7.

[6] = tested on: rat wound healing model; experiment: Rat wound healing model (subcutaneous porcine dermal collagen film implants); format: in vivo; conditions: 1 μg/ml in collagen film, implanted subcutaneously, 28 days, p < 0.01
Excerpt: In this experimental system, 1 cm^2 pieces of porcine dermal collagen films impregnated with either control medium or medium containing the indicated concentration of test substance were implanted subcutaneously into rats. The animals were sacrificed 28 days later and the removed collagen implants fixed and sectioned for image analysis.

[7] = tested on: human skin fibroblasts (SK319 and FSF44); experiment: Pre-incubation of cells with IGDS, subsequent migration in native collagen gel assay; format: cell-based
Method: Confluent cells on plastic tissue culture dishes were washed 3× with serum-free MEM (SF-MEM) and then incubated for various times with the indicated concentrations of IGDS (SEQ ID NO 2) in SF-MEM. They were then trypsinised and washed extensively by repeated (5×) cycles of centrifugation and resuspension in SF-MEM. The behaviour of these pre-incubated cells was assessed in the collagen gel assay in the absence of further IGDS (SEQ ID NO 2)(indicated as IGDS (SEQ ID NO 2) not in assay). […] Data were obtained from three experiments and are expressed as mean ±SD.
as §1

[8] = Genistein 10 μg/ml, PD98059 2.0 μM, PKA inhib 5 nM
[9] = Genistein 10 μg/ml, PD98059 2.0 μM, PKA inhib 5 nM, no pre-incubation, IGDS and inhibitor in assay (early and late events)
[10] = Genistein 10 μg/ml, PD98059 2.0 μM, PKA inhib 5 nM, pre-incubation with IGDS alone, inhibitor only in assay (late events)
[11] = Genistein 10 μg/ml, PD98059 2.0 μM, PKA inhib 5 nM, pre-incubation with IGDS and inhibitor, neither in assay (early events)
[12] = peptide 10.0 μ molar, no pre-incubation, IGDS and peptide in assay (early and late events)
[13] = peptide 10.0 μ molar, pre-incubation with IGDS alone, peptide only in assay (late events)
[14] = peptide 10.0 μ molar, pre-incubation with IGDS and peptide, neither in assay (early events)

O=c1c(-c2ccc(O)cc2)coc2cc(O)cc(O)c12 [Genistein]
Inhibitory activity: early events [1, 8]: early events: +
Inhibitory activity: late events [1, 8]: late events: −
inhibition at 10 µg/mL [1, 9]: 94.1 ± 6.5%
inhibition at 10 µg/mL [1, 10]: 0.9 ± 2.9%
inhibition at 10 µg/mL [1, 11]: 96.7 ± 4%
effect on IGDS-induced cell migration (late events), in words [1]: did not affect
effect on initial IGDS signalling (early events), in words [1]: selectively blocked

Ile-Gly-Asp (IGD; listed as Homo sapiens)
concentration at which significant bioactivity (migration stimulation) is first manifest ([2]; collagen gel assay, FIG. 1A): 10 to 100 µM
effect on cell migration into native type I collagen gels [2]: stimulated cell migration

RGES: RGES synthetic peptide (Peptide related to IGES)
Positive responses (%) ([3]; 3000 ng/pellet): (10) %
Positive responses (positive/total) ([3]; 3000 ng/pellet): 1/10
angiogenic response in the chick yolk sac membrane, in words [3]: inactive
effect on the migration stimulating activity of IGDS (co-incubation) ([4]; FIG. 3B, 3C): no effect
effect on IGDS-induced cell migration (late events), in words [1]: inactive
effect on initial IGDS signalling (early events), in words [1]: inactive
Inhibitory activity: early events ([1]; peptide 10.0 μ molar): early events: −
Inhibitory activity: late events ([1]; peptide 10.0 μ molar): late events: −
% inhibition [1, 12]: 1.2 ± 2.1%
% inhibition [1, 13]: 0.3 ± 2.8%
% inhibition [1, 14]: −1.0 ± 3.0%

Ile-Gly-Asp-Gin (IGDQ; listed as Homo sapiens)
concentration at which significant bioactivity (migration stimulation) is first manifest ([2]; collagen gel assay, FIG. 1A): 0.1 µM
effect on cell migration into native type I collagen gels [2]: stimulated cell migration

RGDS: structurally related RGDS tetrapeptide (synthetic peptide) (Peptide related to IGDS)
effect on cell migration into native type I collagen gels [2]: devoid of migration stimulating activity
effect on cell migration through gelatin-coated membranes [5]: inactive
effect on cell migration through membranes coated with native collagen [5]: inactive
Positive responses (%) ([3]; 3000 ng/pellet): (9) %
Positive responses (positive/total) ([3]; 3000 ng/pellet): 1/11
angiogenic response in the chick yolk sac membrane, in words [3]: inactive
concentrations required for inhibition of IGDS activity ([4]; FIG. 3B, 3C): pmolar
effect on the migration stimulating activity of IGDS (co-incubation) ([4]; FIG. 3B, 3C): effectively inhibited
effect on IGDS-induced cell migration (late events), in words [1]: inhibited
effect on initial IGDS signalling (early events), in words [1]: inhibited
Inhibitory activity: early events ([1]; peptide 10.0 μ molar): early events: +
Inhibitory activity: late events ([1]; peptide 10.0 μ molar): late events: +
% inhibition [1, 12]: 92.3 ± 2.1%
% inhibition [1, 13]: 96.5 ± 5.7%
% inhibition [1, 14]: 96.2 ± 4.8%

COc1cccc(-c2cc(=O)c3ccccc3o2)c1N [PD98059]
Inhibitory activity: early events [1, 8]: early events: +
Inhibitory activity: late events [1, 8]: late events: +
% inhibition [1, 9]: 99.8 ± 3.8%
% inhibition [1, 10]: 39.4 ± 5.0%
% inhibition [1, 11]: 90.5 ± 3.1%
effect on IGDS-induced cell migration (late events), in words [1]: blocked
effect on initial IGDS signalling (early events), in words [1]: blocked

Ile-Gly-Asp-Ser (IGDS; listed as Homo sapiens)
concentration at which significant bioactivity (migration stimulation) is first manifest ([2]; collagen gel assay, FIG. 1A): 0.1 µM
shape of dose-response ([2]; collagen gel assay, FIG. 1A): bell-shaped dose-response
effect on cell migration into native type I collagen gels [2]: stimulated cell migration
effect on cell migration through gelatin-coated membranes [5]: devoid of activity
effect on cell migration through membranes coated with native collagen [5]: stimulated cell migration
Positive responses (%) ([3]; 5 ng/pellet): (50) %
Positive responses (positive/total) ([3]; 5 ng/pellet): 3/6
Positive responses (%) ([3]; 50 ng/pellet): (64) %
Positive responses (positive/total) ([3]; 50 ng/pellet): 7/11
Positive responses (%) ([3]; 250 ng/pellet): (77) %
Positive responses (positive/total) ([3]; 250 ng/pellet): 10/13
Positive responses (%) ([3]; 1000 ng/pellet): (64) %
Positive responses (positive/total) ([3]; 1000 ng/pellet): 9/14
Positive responses (%) ([3]; 3000 ng/pellet): (78) %
Positive responses (positive/total) ([3]; 3000 ng/pellet): 7/9
angiogenic response in the chick yolk sac membrane, in words [3]: elicited an angiogenic response; also recorded: stimulates angiogenesis
angiogenic response elicited by pellet ([3]; pellet containing 1.0 μg, 6-day chick embryos, 24 hr, FIG. 7): positive angiogenic response
Fibroblasts (% field) ([6]; control 8.3 ± 6.7): 18.2 ± 9.4 % field
Vessels (per field) ([6]; control 15.3 ± 5.5): 26.7 ± 6.4 per field
activity on cell migration when present on its own ([4]; 0.01 μM (10^7 fM), FIG. 3A): inactive
effect upon cell migration of co-incubation with the gelatin-binding domain ([4]; suboptimal concentrations of each, FIG. 3A): additive effect
persistence of effect on cell migration after pre-incubation ([7]; assayed in absence of further IGDS, dependent on pre-incubation time and peptide concentration, FIG. 4): persistent
elevated migratory behaviour still manifest following passages in vitro ([7]; pre-incubated cells, data not shown): 1–2 passages
